Test results: patent US20020090380A1, “Novel formulation comprising thymol useful in the treatment of drug resistant bacterial infections” (priority 2000, published 2002)
Where two headings read alike, the source gives them in different places.

What was measured:
[1] = system: Ethidium bromide resistant strain of Mycobacterium smegmetis; format: cell-based
[2] = system: Mycobacterium smegmetis wild type; format: cell-based
[3] = system: Lom^R mutants of Mycobacterium smegmatis; format: cell-based
[4] = system: lomefloxacin resistant cells of E. coli; format: cell-based, Escherichia coli
[5] = system: Nal^R mutants of E. coli; format: cell-based, Escherichia coli
[6] = system: E. coli CA 8000 (WT); format: cell-based, Escherichia coli
[7] = system: E. coli cells; test: microbe, parasite or virus in culture; format: cell-based; conditions: Escherichia coli

O=C(N[C@H](CO)[C@H](O)c1ccc([N+](=O)[O-])cc1)C(Cl)Cl [Chloromphenicol]
concentration against which the strain is resistant (mdr) [1]: 20 µg/mL

CC[n+]1c(-c2ccccc2)c2cc(N)ccc2c2ccc(N)cc21 [ethidium bromide]
concentration at which the strain is killed [2]: 3 µg/mL

CCn1cc(C(=O)O)c(=O)c2cc(F)c(N3CCNC(C)C3)c(F)c21 (stereo not drawn) [Lomefloxacin, lomefloxacin]
concentration upto which the mutants were resistant ([3]; Lom^R mutants isolated in medium with 20 μg/ml lomefloxacin): ≤ 60 µg/mL
Growth in poison agar medium ([4]; CAL 101, 1.5 μg/ml): +
Growth in poison agar medium ([4]; CAL 102, 1.5 μg/ml): +
Growth in poison agar medium ([4]; CAL 103, 1.5 μg/ml): +
Growth in poison agar medium ([4]; CAL 104, 1.5 μg/ml): +
Growth in poison agar medium ([4]; CAL 105, 1.5 μg/ml): +
Growth in poison agar medium ([4]; CAL 106, 1.5 μg/ml): +
Growth in poison agar medium ([4]; CAL 107, 1.5 μg/ml): +
Growth in poison agar medium ([4]; CAL 108, 1.5 μg/ml): +
Growth in poison agar medium ([5]; CAN 101, 5 μg/ml): −
Growth in poison agar medium ([5]; CAN 102, 5 μg/ml): −
Growth in poison agar medium ([5]; CAN 103, 5 μg/ml): −
Growth in poison agar medium ([5]; CAN 104, 5 μg/ml): −
Growth in poison agar medium ([5]; CAN 105, 5 μg/ml): −
Growth in poison agar medium ([5]; CAN 106, 5 μg/ml): −
Growth in poison agar medium ([5]; CAN 107, 5 μg/ml): −
Growth in poison agar medium ([5]; CAN 108, 5 μg/ml): −
Growth in poison agar medium ([5]; CAN 109, 5 μg/ml): −
Growth in poison agar medium ([5]; CAN 110, 5 μg/ml): −
Growth in poison agar medium ([5]; CAN 111, 5 μg/ml): −
Growth in poison agar medium ([5]; CAN 112, 5 μg/ml): −
Growth in poison agar medium ([5]; CAN 113, 5 μg/ml): −
Growth in poison agar medium ([5]; CAN 114, 5 μg/ml): −
Growth in poison agar medium ([5]; CAN 115, 5 μg/ml): −
Growth in poison agar medium ([5]; CAN 116, 5 μg/ml): −
Growth in poison agar medium ([5]; CAN 117, 5 μg/ml): −
Growth in poison agar medium ([5]; CAN 118, 5 μg/ml): −
Growth in poison agar medium ([5]; CAN 119, 5 μg/ml): −
Growth in poison agar medium ([5]; CAN 120, 5 μg/ml): −
Growth in poison agar medium ([5]; CAN 121, 5 μg/ml): −
Growth in poison agar medium ([5]; CAN 122, 5 μg/ml): −
Growth in poison agar medium ([5]; CAN 123, 5 μg/ml): −
Growth in poison agar medium ([5]; CAN 124, 5 μg/ml): −
Growth in poison agar medium ([5]; CAN 125, 5 μg/ml): −
Growth in poison agar medium ([5]; CAN 126, 5 μg/ml): −
Growth in poison agar medium [6]: −

CCn1cc(C(=O)O)c(=O)c2ccc(C)nc21 [Nalidixic Acid, nalidixic acid]
zone of inhibition at 0.25 µg/disc ([7]; nalidixic acid 0.25 μg/disc): 3 mm
zone of inhibition at 0.5 µg/disc ([7]; nalidixic acid 0.50 μg/disc): 6 mm
zone of inhibition at 1 µg/disc ([7]; nalidixic acid 1.00 μg/disc): 9 mm
zone of inhibition at 1.5 µg/disc ([7]; nalidixic acid 1.50 μg/disc): 11 mm
zone of inhibition at 2 µg/disc ([7]; nalidixic acid 2.00 μg/disc): 12 mm
Growth in poison agar medium ([4]; CAL 101, 50 μg/ml): +
Growth in poison agar medium ([4]; CAL 102, 50 μg/ml): +
Growth in poison agar medium ([4]; CAL 103, 50 μg/ml): +
Growth in poison agar medium ([4]; CAL 104, 50 μg/ml): +
Growth in poison agar medium ([4]; CAL 105, 50 μg/ml): +
Growth in poison agar medium ([4]; CAL 106, 50 μg/ml): +
Growth in poison agar medium ([4]; CAL 107, 50 μg/ml): +
Growth in poison agar medium ([4]; CAL 108, 50 μg/ml): +
Growth in poison agar medium ([5]; CAN 101, 50 μg/ml): +
Growth in poison agar medium ([5]; CAN 102, 50 μg/ml): +
Growth in poison agar medium ([5]; CAN 103, 50 μg/ml): +
Growth in poison agar medium ([5]; CAN 104, 50 μg/ml): +
Growth in poison agar medium ([5]; CAN 105, 50 μg/ml): +
Growth in poison agar medium ([5]; CAN 106, 50 μg/ml): +
Growth in poison agar medium ([5]; CAN 107, 50 μg/ml): +
Growth in poison agar medium ([5]; CAN 108, 50 μg/ml): +
Growth in poison agar medium ([5]; CAN 109, 50 μg/ml): +
Growth in poison agar medium ([5]; CAN 110, 50 μg/ml): +
Growth in poison agar medium ([5]; CAN 111, 50 μg/ml): +
Growth in poison agar medium ([5]; CAN 112, 50 μg/ml): +
Growth in poison agar medium ([5]; CAN 113, 50 μg/ml): +
Growth in poison agar medium ([5]; CAN 114, 50 μg/ml): +
Growth in poison agar medium ([5]; CAN 115, 50 μg/ml): +
Growth in poison agar medium ([5]; CAN 116, 50 μg/ml): +
Growth in poison agar medium ([5]; CAN 117, 50 μg/ml): +
Growth in poison agar medium ([5]; CAN 118, 50 μg/ml): +
Growth in poison agar medium ([5]; CAN 119, 50 μg/ml): +
Growth in poison agar medium ([5]; CAN 120, 50 μg/ml): +
Growth in poison agar medium ([5]; CAN 121, 50 μg/ml): +
Growth in poison agar medium ([5]; CAN 122, 50 μg/ml): +
Growth in poison agar medium ([5]; CAN 123, 50 μg/ml): +
Growth in poison agar medium ([5]; CAN 124, 50 μg/ml): +
Growth in poison agar medium ([5]; CAN 125, 50 μg/ml): +
Growth in poison agar medium ([5]; CAN 126, 50 μg/ml): +
Growth in poison agar medium ([6]; CA 8000 (WT), 50 μg/ml, Table 2): −
Growth in poison agar medium ([6]; CA 8000 (WT), 50 μg/ml, Table 4): −

CN(C)[C@@H]1C(O)=C(C(N)=O)C(=O)[C@@]2(O)C(O)=C3C(=O)c4c(O)cccc4[C@@](C)(O)[C@H]3C[C@@H]12 [Tetracycline]
concentration against which the strain is resistant (mdr) [1]: 10 µg/mL

O=C(O)c1cn(C2CC2)c2cc(N3CCNCC3)c(F)cc2c1=O [Ciprofloxacin, ciprofloxacin]
resistance of the mutants ([3]; Lom^R mutants): resistant
Growth in poison agar medium ([4]; CAL 101, 2 μg/ml): +
Growth in poison agar medium ([4]; CAL 102, 2 μg/ml): +
Growth in poison agar medium ([4]; CAL 103, 2 μg/ml): +
Growth in poison agar medium ([4]; CAL 104, 2 μg/ml): +
Growth in poison agar medium ([4]; CAL 105, 2 μg/ml): +
Growth in poison agar medium ([4]; CAL 106, 2 μg/ml): +
Growth in poison agar medium ([4]; CAL 107, 2 μg/ml): +
Growth in poison agar medium ([4]; CAL 108, 2 μg/ml): +
Growth in poison agar medium ([5]; CAN 101, 5 μg/ml): −
Growth in poison agar medium ([5]; CAN 102, 5 μg/ml): −
Growth in poison agar medium ([5]; CAN 103, 5 μg/ml): −
Growth in poison agar medium ([5]; CAN 104, 5 μg/ml): −
Growth in poison agar medium ([5]; CAN 105, 5 μg/ml): −
Growth in poison agar medium ([5]; CAN 106, 5 μg/ml): −
Growth in poison agar medium ([5]; CAN 107, 5 μg/ml): −
Growth in poison agar medium ([5]; CAN 108, 5 μg/ml): −
Growth in poison agar medium ([5]; CAN 109, 5 μg/ml): −
Growth in poison agar medium ([5]; CAN 110, 5 μg/ml): −
Growth in poison agar medium ([5]; CAN 111, 5 μg/ml): −
Growth in poison agar medium ([5]; CAN 112, 5 μg/ml): −
Growth in poison agar medium ([5]; CAN 113, 5 μg/ml): −
Growth in poison agar medium ([5]; CAN 114, 5 μg/ml): −
Growth in poison agar medium ([5]; CAN 115, 5 μg/ml): −
Growth in poison agar medium ([5]; CAN 116, 5 μg/ml): −
Growth in poison agar medium ([5]; CAN 117, 5 μg/ml): −
Growth in poison agar medium ([5]; CAN 118, 5 μg/ml): −
Growth in poison agar medium ([5]; CAN 119, 5 μg/ml): −
Growth in poison agar medium ([5]; CAN 120, 5 μg/ml): −
Growth in poison agar medium ([5]; CAN 121, 5 μg/ml): −
Growth in poison agar medium ([5]; CAN 122, 5 μg/ml): −
Growth in poison agar medium ([5]; CAN 123, 5 μg/ml): −
Growth in poison agar medium ([5]; CAN 124, 5 μg/ml): −
Growth in poison agar medium ([5]; CAN 125, 5 μg/ml): −
Growth in poison agar medium ([5]; CAN 126, 5 μg/ml): −
Growth in poison agar medium [6]: −

CO[C@H]1/C=C/O[C@@]2(C)Oc3c(C)c(O)c4c(O)c(c(/C=N/N5CCN(C)CC5)c(O)c4c3C2=O)NC(=O)/C(C)=C\C=C\[C@H](C)[C@H](O)[C@@H](C)[C@@H](O)[C@@H](C)[C@H](OC(C)=O)[C@@H]1C [Rifampicin]
concentration against which the strain is resistant (mdr) [1]: 40 µg/mL
